US20220073532A1, “INHIBITORS OF CGAS ACTIVITY AS THERAPEUTIC AGENTS” (BELLBROOK LABS, LLC, priority 2019, published 2022)
Converted amounts (≈) assume the structure as drawn.

What was measured:
MDR1 (P-glycoprotein) = experiment: MDCK-MDR permeability; assay type: in vitro ADME, canine; conditions: dog, MDCK-MDR1
Method: (§1) ADME/PK: Compounds are tested in Caco-2 and MDR1-MDCK permeability assays to provide a measure of intestinal absorption, blood-brain-permeability and efflux by P-glycoprotein (P-gp), a frequent obstacle to effective CNS delivery. CNS drugs are associated with high passive membrane permeability (Papp>1×10^−6 cm/sec) and have low efflux ratios (Papp(B-A)/Papp(A-B)<2.5). Metabolic stability is tested using mouse and human liver microsomes incubated with NADPH for CYP-dependent metabolism and with UDPGA for glucuronidation. Compounds are tested for pharmacokinetics and brain penetration in mice using oral, intravenous and intraperitoneal administration.

[1] = tested on: MDCK-MDR (Madin-Darby Canine Kidney cells-Multi Drug Resistance pump); experiment: MDCK-MDR permeability; assay type: in vitro ADME
Method: as §1

cGAS = cGAS (Homo sapiens, UniProt Q8N884); experiment: SPR / biophysical binding to cGAS; conditions: enzymatic analysis and SPR, TSA
From the text: Following confirmation of hits at three concentrations and removal of compounds with visually evident reactivity or metabolic liabilities, non-stoichiometric inhibitors, aggregators, DNA intercalators and redox-active compounds were triaged (FIG. 2E) using established assays. […] Initial SAR based on more than 100 commercially available analogs provided additional confidence that the compounds were bonafide inhibitors, and informed potential scaffold hops and toleration for modifications.
A highly efficient platform for preclinical drug discovery (FIG. 3) was assembled, providing for development of cGAS inhibitors, which is improved by the addition of a powerful computational modeling method and in vivo PK studies (FIG. 3). […]
Biochemical and biophysical analysis: Potency and MOA studies, including Mn^2+ sensitivity, are performed using the cGAS enzymatic assay. […] Competition with ATP and GTP is assessed by comparing basal IC50 values to those in the presence of saturating ATP or GTP, and subsequently confirmed by measuring velocity vs. substrate at varying ATP or GTP levels. […]

[2] = Human microsomal stability (NADPH); assay type: in vitro ADME; conditions: liver microsomes, read-out: Human MS Stability (NADPH) t1/2
Method: as §1

[3] = tested on: NFκB-driven SEAP expression in THP-1 Dual cells; experiment: THP-1 Dual NFκB-SEAP reporter assay; assay type: cell-based, human; conditions: THP-1 Dual cells
Method: (§2) IFN induction in human monocyte cell lines: The human monocyte cell line THP-1 gives a robust cGAS/STING-dependent type I IFN response and has been used extensively for studies on the pathway. Typically, cells are stimulated by transfection with dsDNA and gene expression is assessed using an ELISA for IFNβ, a reporter gene assay, and/or cGAS/STING pathway markers such as STING phosphorylation. These assays were validated using the TBK1 inhibitor, BX-795, which acts downstream of cGAS/STING, as a probe; THP-1 Dual cells (Invivogen, San Diego) are used as the reporter cell line for routine compound testing (FIG. 5A). These assays were optimized, including equalizing responses with transfected DNA and cGAMP and comparing responses between undifferentiated cells and cells that have been differentiated to macrophages (which show little difference). […] Stimulation of THP-1 Dual cells with damage-associated molecular pattern molecules (DAMPs) that act through pattern recognition receptors other than cGAS provides another way to confirm the specificity of putative cGAS inhibitors.

THP1 cGAS KO cells = experiment: Specificity test in THP-Dual cGAS knockout cells; assay type: cell-based, human
From the text: FIG. 5 includes (A) a schematic showing the THP1 dual-cell reporter system: secreted luciferase reports on IRF3-driven transcription; secreted alkaline phosphatase reports on NFκB-driven transcription, both downstream of cGAS/STING. THP-Dual cGAS knockout cells are used to test for non-specific effects; (B) a plot of the dose response for inhibition of Luc expression by Compound 15; (C) a plot of the dose response for inhibition of Luc expression by the TBK1 inhibitor, BX-795; and (D) a plot of the dose response for inhibition of SEAP expression by Compound 15.
as §2

Ksol (PBS, pH 7.4) = assay type: physicochemical; conditions: pH 7.4, aqueous buffer, kinetic from dmso stock
[4] = tested on: Kinase, PDE, GTPase, ENPP1 (Abl1, PKA, TBK1, Rac1, PDE4A, ENPP1); experiment: Selectivity panel of nucleotide-utilizing enzymes; assay type: biochemical
Method: Selectivity profiling: A panel of nucleotide-utilizing enzymes that included kinases (Abl1, PKA, TBK1—which transduces cGAS/STING signals, see FIG. 5A) a GTPase (Rac1), a phosphodiesterase (PDE4A), and ENPP1, a nucleotidase that degrades cGAMP, was used preliminarily. cGAS assays were used to perform dose response measurements with cGAS inhibitors. In addition to these enzymes, inhibitors are tested with three other members of the oligoadenylate synthases (OAS), nucleic acid sensors that activate innate immunity via production of short, 2′-5′ oligoadenylate second messengers. Methods for expression and purification of the human and/or porcine enzymes in E. coli or baculovirus-infected insect cells have been developed as well as a simple, absorbance-based assay using commercially available pyrophosphate kit. In addition, an FP-based assay (competitive displacement of a fluor-cGAMP tracer) is developed to test compounds as ligands for STING (which could be one explanation for the partial activity of Compound 15 in cells stimulated with cGAMP) (FIG. 5).

[5] = tested on: IRF3-driven Luc expression in THP-1 Dual cells; experiment: THP-1 Dual IRF3-Luc reporter assay; assay type: cell-based, human
Method: as §2

Mouse cGAS = Mouse cGAS (Mus musculus, UniProt Q8C6L5); experiment: cGAS enzymatic assay with mouse cGAS; assay type: biochemical
Method: Biochemical and biophysical analysis: Potency and MOA studies, including Mn^2+ sensitivity, are performed using the cGAS enzymatic assay. Dose response experiments are used to determine IC50 values under basal conditions (5 mM MgCl2, 100 μM ATP/GTP), and with the addition of physiological levels of Mn (0.2 mM) using human and mouse cGAS. Ligand optimization is driven by potency with the human enzyme; potency with mouse cGAS informs selection of an appropriate disease model for efficacy studies. Competition with ATP and GTP is assessed by comparing basal IC50 values to those in the presence of saturating ATP or GTP, and subsequently confirmed by measuring velocity vs. substrate at varying ATP or GTP levels. Inhibitor residence times (1/koff) are used as a key parameter for prioritizing compounds and driving SAR, because a longer residence time often results from an allosteric mechanism, and can also correlate with improved cellular activity. The cGAS enzymatic assay is used with the jump dilution method to measure residence times (inhibitor dissociation rates), as described for kinases using the very similar ADP assay. Biophysical methods, including SPR and TSA, are used as orthologous methods for residence time measurements and kd estimates.

Mouse cGAS, sequence (Q8C6L5 whole entry): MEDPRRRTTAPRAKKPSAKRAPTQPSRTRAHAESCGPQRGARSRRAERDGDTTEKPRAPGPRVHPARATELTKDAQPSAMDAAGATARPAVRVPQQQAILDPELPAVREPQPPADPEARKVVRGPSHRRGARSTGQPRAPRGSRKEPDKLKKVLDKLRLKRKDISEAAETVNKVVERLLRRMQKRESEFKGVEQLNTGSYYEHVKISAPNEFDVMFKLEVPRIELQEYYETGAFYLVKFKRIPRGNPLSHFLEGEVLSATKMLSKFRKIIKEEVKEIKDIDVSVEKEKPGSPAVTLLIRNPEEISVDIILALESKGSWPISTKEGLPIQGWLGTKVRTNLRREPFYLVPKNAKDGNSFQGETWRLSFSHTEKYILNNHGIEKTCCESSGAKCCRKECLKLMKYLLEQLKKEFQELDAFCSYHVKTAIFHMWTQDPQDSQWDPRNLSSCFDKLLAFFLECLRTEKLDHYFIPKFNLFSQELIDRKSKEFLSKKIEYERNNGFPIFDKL
cGAS, sequence (Q8N884 whole entry): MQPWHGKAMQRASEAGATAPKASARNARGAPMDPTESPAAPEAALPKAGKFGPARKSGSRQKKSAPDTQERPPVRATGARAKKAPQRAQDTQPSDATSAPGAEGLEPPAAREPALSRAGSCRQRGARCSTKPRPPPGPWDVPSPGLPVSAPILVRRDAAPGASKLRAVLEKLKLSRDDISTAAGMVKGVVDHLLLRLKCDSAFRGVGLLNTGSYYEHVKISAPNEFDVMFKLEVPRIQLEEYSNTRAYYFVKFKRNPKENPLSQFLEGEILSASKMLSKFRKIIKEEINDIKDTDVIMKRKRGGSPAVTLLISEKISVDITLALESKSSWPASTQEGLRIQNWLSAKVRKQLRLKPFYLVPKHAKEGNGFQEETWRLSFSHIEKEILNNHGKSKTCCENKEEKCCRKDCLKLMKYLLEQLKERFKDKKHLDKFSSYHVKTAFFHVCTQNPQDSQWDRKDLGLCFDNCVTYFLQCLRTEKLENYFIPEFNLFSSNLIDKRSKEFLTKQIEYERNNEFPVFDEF

Cc1nc(N2CCC[C@H]2C(=O)O)c2oc3ccccc3c2n1 [Compound 15, (2-methylbenzofuro[3,2-d]pyrimidin-4-yl)-L-proline]
efflux ratio (MDR1 (P-glycoprotein)): 0.4 | Papp A→B (MDR1 (P-glycoprotein); A→B): 9.8 ×10⁻⁶ cm/s | MDR-1-mediated export [1]: no indication of MDR-1-mediated export | binding stoichiometry to cGAS (cGAS): Stoichiometric binding (1:1) | half-life [2]: > 2 h | inhibition of NFκB (SEAP)-driven transcription [3]: 50-75% | effect on IRF3-driven Luc expression in THP1 cGAS KO cells stimulated with LPS (THP1 cGAS KO cells; LPS-stimulated, cGAS KO): no effect | inhibition in cGAMP-stimulated cells lacking cGAS (THP1 cGAS KO cells; cGAMP-stimulated, cGAS knockout): essentially no inhibition | solubility kinetic (Ksol (PBS, pH 7.4)): 520 µM (≈ 155 µg/mL) | Off-Target Activity (Kinase, PDE, GTPase, ENPP1) [4]: None | inhibitory activity with a panel of nucleotide-utilizing enzymes ([4]; at 200 μM): lack of inhibitory activity | inhibition of IRF3 (Luc)-driven transcription ([5]; THP-1 Dual cells): 50-75% | inhibition in cGAMP-stimulated cells with cGAS present ([5]; cGAMP-stimulated THP-1 Dual cells): still caused inhibition, though to a lesser degree | cGAS-dependent cellular activity ([5]; human monocyte cell line THP-1): cGAS-dependent inhibition of type I IFN | IC50 (Mouse cGAS): > 150 µM
